# Molecular target: T1, Human orexin receptor type 2 (Homo sapiens, UniProt O43614)
# T1 sequence (O43614 1-444): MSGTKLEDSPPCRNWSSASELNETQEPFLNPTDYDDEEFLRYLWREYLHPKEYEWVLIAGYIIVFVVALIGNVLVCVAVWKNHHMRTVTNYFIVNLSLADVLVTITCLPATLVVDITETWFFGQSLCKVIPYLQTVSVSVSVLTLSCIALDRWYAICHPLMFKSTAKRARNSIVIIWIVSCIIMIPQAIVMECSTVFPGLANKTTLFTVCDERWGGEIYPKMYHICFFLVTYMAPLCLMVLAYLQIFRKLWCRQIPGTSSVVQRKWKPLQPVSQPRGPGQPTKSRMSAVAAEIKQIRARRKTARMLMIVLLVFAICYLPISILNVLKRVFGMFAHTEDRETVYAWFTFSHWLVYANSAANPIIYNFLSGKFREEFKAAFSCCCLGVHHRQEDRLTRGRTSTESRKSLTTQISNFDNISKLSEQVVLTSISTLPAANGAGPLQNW
# Experiment: Test Example 1: agonist activity for orexin receptor type 2 (aequorin luminescence, intracellular calcium mobilization)
# Conditions: compound 10 μm; CHO cells transiently expressing human orexin receptor type 2 and apoaequorin; relative percentage of luminescence for the luminescence (100%) of Orexin A (100 μM)
# Experimental: Human orexin receptor type 2 and apoaequorin were transiently expressed in CHO cells, and the agonist activity was evaluated based on intracellular calcium mobilization with ligand stimulation. The CHO cells transiently-expressed human orexin receptor type 2 and apoaequorin were seeded on a 384-well plate by 2,000 cells/well, and then incubated for 16-22 hours. After the plate was returned to room temperature, Coelenterazine hcp (final concentration: 1 μM) was added to the plate, and the plate was allowed to stand at room temperature for 2 hours. And then, Orexin A or each test compound was added to the plate, and the luminescence of the cells was measured with FDSS7000 (Hamamatsu Photonics K. K.), wherein Orexin A and each test compound were dissolved in DMSO (final concentration: 0.1%), and diluted with a buffer (Hanks, 20 mM HEPES, 0.1% BSA). The agonist activity of each test compound for orexin receptor type 2 was calculated as relative percentage of luminescence for the luminescence (100%) of Orexin A (100 μM).
row,Structure (SMILES),Agonist Activity (%)
1,"Cc1ccc(C2CCN(C(=O)Nc3c(F)cccc3C3CCN(C(C)CF)CC3)CC2)cc1 (stereo not shown) [Example 137, N-{2-fluoro-6-[1-(1-fluoropropan-2-yl)piperidin-4-yl]phenyl}-4-(4-methylphenyl)piperidine-1-carboxamide]",126%
2,"COCC(C)N1CCN(c2ccccc2NC(=O)N2CCC(c3ccc(C)cc3)CC2)CC1 (stereo not shown) [Example 126, N-{2-[4-(1-methoxypropan-2-yl)piperazin-1-yl]phenyl}-4-(4-methylphenyl)piperidine-1-carboxamide]",139%
3,"Cc1ccc(C2CCN(C(=O)Nc3c(OC(C)C)cccc3C3CCN(C(C)C)CC3)CC2)cc1 [Example 129, 4-(4-methylphenyl)-N-{2-[(propan-2-yl)oxy]-6-[1-(propan-2-yl)piperidin-4-yl]phenyl}piperidine-1-carboxamide]",138%
4,"Cc1ccc(C2CC3CCC(C2)N3C(=O)Nc2c(F)cccc2N2CCN(C(C)C)CC2)cc1 (stereo not shown) [Example 41, N-{2-fluoro-6-[4-(propan-2-yl)piperazin-1-yl]phenyl}-3-(4-methylphenyl)-8-azabicyclo[3.2.1]octane-8-carboxamide]",47%
5,"Cc1ccc(C2CCN(C(=O)Nc3c(F)cccc3N3CCN(C(C)C)CC3)CC2)cc1 [Example 9, N-{2-fluoro-6-[4-(propan-2-yl)piperazin-1-yl]phenyl}-4-(4-methylphenyl)piperidine-1-carboxamide]",132%
6,"Cc1ccc(C2CCN(C(=O)Nc3ccc(F)cc3N3CCN(C(C)C)CC3)CC2)cc1 [Example 10, N-{4-fluoro-2-[4-(propan-2-yl)piperazin-1-yl]phenyl}-4-(4-methylphenyl)piperidine-1-carboxamide]",34%
7,"COc1cccc(C2=CCN(C(C)C)CC2)c1NC(=O)N1CCC(c2ccc(C)cc2)CC1 [Example 47, N-{2-methoxy-6-[1-(propan-2-yl)-1,2,3,6-tetrahydropyridin-4-yl]phenyl}-4-(4-methylphenyl)piperidine-1-carboxamide]",165%
8,"CC(C)N1CCN(c2cccc(Cl)c2NC(=O)N2CCC(C)(c3noc([C@H]4C[C@H]4C)n3)CC2)CC1 [Example 117, N-{2-chloro-6-[4-(propan-2-yl)piperazin-1-yl]phenyl}-4-methyl-4-{5-[(1S,2R)-2-methylcyclopropyl]-1,2,4-oxadiazol-3-yl}piperidine-1-carboxamide]",158%
9,"COc1cccc(CN2CCN(C(C)C)CC2)c1NC(=O)N1CCC(c2ccc(C)cc2)CC1 [Example 63, N-(2-methoxy-6-{[4-(propan-2-yl)piperazin-1-yl]methyl}phenyl)-4-(4-methylphenyl)piperidine-1-carboxamide]",26%
10,"COc1cccc(N2CCN(C(C)C)CC2)c1NC(=O)N1CCC(c2ccc(OC(F)(F)F)cc2)CC1 [Example 16, N-{2-methoxy-6-[4-(propan-2-yl)piperazin-1-yl]phenyl}-4-[4-(trifluoromethoxy)phenyl]piperidine-1-carboxamide]",82%
11,"CC(C)N1CCN(c2cccc(Cl)c2NC(=O)N2CCC(C)(c3nnc(C4CC4)s3)CC2)CC1 [Example 102, N-{2-chloro-6-[4-(propan-2-yl)piperazin-1-yl]phenyl}-4-(5-cyclopropyl-1,3,4-thiadiazol-2-yl)-4-methylpiperidine-1-carboxamide]",160%
12,"CC1(c2noc(C3CC3)n2)CCN(C(=O)Nc2c(Cl)cccc2N2CCN(C3CC3)CC2)CC1 [Example 113, N-[2-chloro-6-(4-cyclopropylpiperazin-1-yl)phenyl]-4-(5-cyclopropyl-1,2,4-oxadiazol-3-yl)-4-methylpiperidine-1-carboxamide]",157%
13,"CC(C)N1CC=C(c2cccc(Cl)c2NC(=O)N2CCC(C)(c3noc(C4CC4)n3)CC2)CC1 [Example 130, N-{2-chloro-6-[1-(propan-2-yl)-1,2,3,6-tetrahydropyridin-4-yl]phenyl}-4-(5-cyclopropyl-1,2,4-oxadiazol-3-yl)-4-methylpiperidine-1-carboxamide]",142%
14,"CC(C)N1CCN(c2cccc(Cl)c2NC(=O)N2CCC(C)(c3ncc(C4CC4)s3)CC2)CC1 [Example 101, N-{2-chloro-6-[4-(propan-2-yl)piperazin-1-yl]phenyl}-4-(5-cyclopropyl-1,3-thiazol-2-yl)-4-methylpiperidine-1-carboxamide]",157%
15,"Cc1cnc(C2CCN(C(=O)Nc3c(Cl)cccc3N3CCN(C(C)C)CC3)CC2)nc1 [Example 98, N-{2-chloro-6-[4-(propan-2-yl)piperazin-1-yl]phenyl}-4-(5-methylpyrimidin-2-yl)piperidine-1-carboxamide]",165%
16,"Cc1onc(C2(C)CCN(C(=O)Nc3c(Cl)cccc3N3CCN(C(C)C)CC3)CC2)c1Cl [Example 90, 4-(4-chloro-5-methyl-1,2-oxazol-3-yl)-N-{2-chloro-6-[4-(propan-2-yl)piperazin-1-yl]phenyl}-4-methylpiperidine-1-carboxamide]",164%
17,"CC(C)N1CCN(c2ccccc2NC(=O)N2CCC(c3ccccc3)CC2)CC1 [Example 7, 4-phenyl-N-{2-[4-(propan-2-yl)piperazin-1-yl]phenyl}piperidine-1-carboxamide]",154%
18,"CC(C)N1CCN(c2cccc(Cl)c2NC(=O)N2CCC(C)(c3noc(C4(C)CC4)n3)CC2)CC1 [Example 80, N-{2-chloro-6-[4-(propan-2-yl)piperazin-1-yl]phenyl}-4-methyl-4-[5-(1-methylcyclopropyl)-1,2,4-oxadiazol-3-yl]piperidine-1-carboxamide]",157%
19,"Cc1ccc(C2CCN(C(=O)Nc3c(F)cccc3N3CCN(C(C)C)CC3)CC2C)cc1 (racemic) [Example 26, Rac-N-{2-fluoro-6-[4-(propan-2-yl)piperazin-1-yl]phenyl}-3-methyl-4-(4-methylphenyl)piperidine-1-carboxamide]",63%
20,"CC(C)N1CC=C(c2cccc(F)c2NC(=O)N2CCC(C)(c3cc(C4CC4)on3)CC2)CC1 [Example 55, 4-(5-cyclopropyl-1,2-oxazol-3-yl)-N-{2-fluoro-6-[1-(propan-2-yl)-1,2,3,6-tetrahydropyridin-4-yl]phenyl}-4-methylpiperidine-1-carboxamide]",154%
21,"CC(C)N1CC(Oc2cccc(Cl)c2NC(=O)N2CCC(C)(c3noc(C4CC4)n3)CC2)C1 [Example 160, N-(2-chloro-6-{[1-(propan-2-yl)azetidin-3-yl]oxy}phenyl)-4-(5-cyclopropyl-1,2,4-oxadiazol-3-yl)-4-methylpiperidine-1-carboxamide]",141%
22,"CC(C)N1CCN(c2cccc(F)c2NC(=O)N2CCC(c3ccccn3)CC2)CC1 [Example 36, N-{2-fluoro-6-[4-(propan-2-yl)piperazin-1-yl]phenyl}-4-(pyridin-2-yl)piperidine-1-carboxamide]",123%
23,"CC(C)N1CCN(c2cccc(Cl)c2NC(=O)N2CCC(C)(c3noc(C4(F)CC4)n3)CC2)CC1 [Example 109, N-{2-chloro-6-[4-(propan-2-yl)piperazin-1-yl]phenyl}-4-[5-(1-fluorocyclopropyl)-1,2,4-oxadiazol-3-yl]-4-methylpiperidine-1-carboxamide]",161%
24,"CC(C)N1CCC(c2cccc(Cl)c2NC(=O)N2CCC(C)(c3noc(C4CC4)n3)CC2)CC1 [Example 145, N-{2-chloro-6-[1-(propan-2-yl)piperidin-4-yl]phenyl}-4-(5-cyclopropyl-1,2,4-oxadiazol-3-yl)-4-methylpiperidine-1-carboxamide]",148%
25,"CC(C)N1CC=C(c2cccc(F)c2NC(=O)N2CCC(C)(c3nc4ccccc4o3)CC2)CC1 [Example 50, 4-(1,3-benzoxazol-2-yl)-N-{2-fluoro-6-[1-(propan-2-yl)-1,2,3,6-tetrahydropyridin-4-yl]phenyl}-4-methylpiperidine-1-carboxamide]",187%
26,"Cc1nc(C2(C)CCN(C(=O)Nc3c(F)cccc3N3CCN(C(C)C)CC3)CC2)no1 [Example 22, N-{2-fluoro-6-[4-(propan-2-yl)piperazin-1-yl]phenyl}-4-methyl-4-(5-methyl-1,2,4-oxadiazol-3-yl)piperidine-1-carboxamide]",97%
27,"CCc1nc(C2(C)CCN(C(=O)Nc3c(F)cccc3N3CCN(C(C)C)CC3)CC2)no1 [Example 82, 4-(5-ethyl-1,2,4-oxadiazol-3-yl)-N-{2-fluoro-6-[4-(propan-2-yl)piperazin-1-yl]phenyl}-4-methylpiperidine-1-carboxamide]",156%
28,"Cc1ccc(C2CCN(C(=O)Nc3c(F)cccc3N3CC4CCC(C3)N4C(C)C)CC2)cc1 [Example 154, N-{2-fluoro-6-[8-(propan-2-yl)-3,8-diazabicyclo[3.2.1]octan-3-yl]phenyl}-4-(4-methylphenyl)piperidine-1-carboxamide]",40%

# Reference: patent US20240308960A1 (Sumitomo Pharma Co., Ltd., priority 2021, published 2024)
